PMC8891364, “Synthesis, and docking studies of novel heterocycles incorporating the indazolylthiazole moiety as antimicrobial and anticancer agents” (Scientific Reports, 2022)
Values after ≈ are worked out from the molar mass of the structure shown.

Tests used:
[1] = test system: Streptococcus mutans ATCC 25175; test: Antimicrobial microtiter-plate MIC assay; format: cell-based; details: for MIC Streptococcus mutant: 24 h, 37 °C; for MIC: Streptococcus mutans, ATCC25175, 24 h, read-out: MIC Streptococcus mutant
Protocol: (§1) The antimicrobial activity of the newly synthesized compounds (2–9) was evaluated against three model pathogenic microorganisms as follows: Streptococcus mutans ATCC 25175 (Gram-positive bacterium); Pseudomonas aeruginosa ATCC 27853 (Gram-negative bacterium); and Candida albicans ATCC 10231 (fungi-like unicellular organism). After cultivating the three tested pathogens overnight in LB broth, 100 µL of each tested organism (10^6 CFU/mL) was added separately to 100 µL of the serially diluted test compounds (5–80 µg) in a 96-well tissue culture plate and incubated at 37 °C for 24 h. Eventually, microbial growth was measured at 600 nm, and the results are presented in the form of MIC (Table 4). Two antibacterial reference drugs, ampicillin and ciprofloxacin, and one antifungal drug, clotrimazole, were incorporated into the experiments.

[2] = test system: Pseudomonas aeruginosa ATCC 27853; test: Antimicrobial microtiter-plate MIC assay; format: cell-based; details: 24 h, 37 °C; for MIC: Pseudomonas aeruginosa, ATCC27853
Protocol: as §1

[3] = test system: Candida albicans ATCC 10231; test: Antimicrobial microtiter-plate MIC assay; format: cell-based; details: for MIC: ATCC10231; for MIC / MIC Candida albicans: 24 h, 37 °C
Protocol: as §1

[4] = test system: HFB-4 cells; test: MTT cytotoxicity assay, normal human melanocytes; format: cell-based; details: 48 h; for IC50: Melanocyte
Protocol: (§2) The human melanocytes (HFB-4) cells, hepatoma (HepG-2) cells, and colon carcinoma (Caco-2) cells were obtained from American Type Culture Collection (ATCC, USA). The cytotoxicity of the newly synthesized compounds (at various concentrations) was determined using the 3-[4, 5-dimethylthiazol]-2, 5-diphenyltetrazolium bromide method (MTT assay)[59] against HFB-4 cells (normal human melanocytes), HepG-2 cells (hepatoma), and Caco-2 cells (colon carcinoma). Normal and cancer cells (1.0 × 10^4) were cultured in sterile 96-well microplates, and incubated for 24 h in DMEM (Lonza, USA) supplemented with 10% fetal bovine serum (Gibco, USA) for HFB-4 and Caco-2 cells or in an RPMI-1640 medium (Lonza, USA) supplemented with 10% FBS for HepG-2 cells. After 24 h of incubation, different doses of the tested synthesized compounds ([…]) were added in triplicate to all cells and incubated for another 48 h in 5% CO2. After washing the cells 3 times with fresh media, to remove dead cells and debris, a solution of MTT (Sigma -Aldrich, 0.5 mg/mL) was added to each well and further incubated for 2–5 h at 37 °C. Afterward, the MTT solution was decanted and 200 µL of DMSO was added. The optical density was measured at 570 nm using a microplate reader (BMG LabTech, Germany), where the cells’ relative viability (%) was estimated using the following equation: viability of cells (%) = [A1 − A0/AU − A0] × 100, where A1 is the absorbance of the test compound, A0 is the absorbance of the blank, and AU is the absorbance of untreated cells (control).
(§3) The antitumor activity of the synthesized compound was determined by calculating the IC50 value (half maximal inhibitory concentration) using Graph Pad Prism 6.0 software. The value of IC50 indicates the derivative concentration that causes 50% cell death, whereas the value of the selectivity index (SI), indicating the ratio of the IC50 value of normal cells versus the IC50 value of tumor cells, was also included as reported by[60],[61].

[5] = test system: HepG-2 cells; test: MTT antitumor assay, hepatoma cells; format: cell-based, human; details: for IC50 HepG-2 / IC50: MTT, 48 h; for SI HepG-2: ratio of IC50 of normal cells (HFB-4) versus IC50 of tumor cells; for IC50: Homo sapiens, HepG2, 48 h
Protocol: as §2, §3

[6] = test system: Caco-2 cells; test: MTT antitumor assay, colon carcinoma cells; format: cell-based; details: for IC50 Caco-2 / IC50: MTT, 48 h; for SI Caco-2: ratio of IC50 of normal cells (HFB-4) versus IC50 of tumor cells; for IC50: Homo sapiens, Caco-2, 48 h
Protocol: as §2, §3

[7] = test system: Pseudomonas aeruginosa; test: Microbial-biofilm inhibition, tissue-culture plate technique (TCP); format: cell-based; details: 25 µg/mL, 24 h
Protocol: (§4) The activity of the newly synthesized compounds against microbial biofilm formation was estimated through the tissue-culture plate technique (TCP) as follows: the three above-mentioned pathogens, Streptococcus mutans, Pseudomonas aeruginosa, and Candida albicans were cultivated overnight in LB broth at 37 °C. Afterward, 200 µL of each diluted organism (10^6 CFU/mL) was inoculated separately (in triplicate) into 96-well tissue culture plates and incubated overnight at 37 °C. The free planktonic cells were removed, after the incubation period, by flipping the plate and washing each well three times with phosphate-buffered-saline (PBS), pH 7.1. To each well, 175 µL of fresh LB broth was added along with 25 µL of the tested compound (25 µg/mL final concentrations). The plates were reincubated at 37 °C for another 24 h, washed with PBS buffer pH 7.1 three times, and dried for 5 min at 50 °C. The formed biofilm was stained with crystal violet solution (0.1% w/v) for 5 min. The excess stain was decanted, and the stained biofilm was solubilized with 200 µL of glacial acetic acid (30% v/v), where the developed blue color was measured at 590 nm. The results are expressed as relative inhibition (%) compared to untreated groups (control). Controls were prepared by culturing the three pathogens on LB medium without any tested compounds.

[8] = test system: Candida albicans; test: as above; format: cell-based; details: 24 h, relative to untreated; for inhibition at 25 µg/mL: Candida albicans
Protocol: as §4

[9] = test system: Streptococcus mutans; test: as above; format: cell-based; details: 25 µg/mL, 24 h
Protocol: as §4

[10] = test system: β-catenin gene; test: qRT-PCR gene expression in HepG-2 and Caco-2 cells; format: cell-based, human; details: IC50 concentrations, 2 days
Protocol: The effects of the potent antitumor derivatives (4, 6, and 8) on the expression level of some tumor regulating genes were elucidated through quantitative real-time PCR (qRT- PCR) and compared to 5-fluorouracil (5-FU) as a reference antitumor drug. Five genes were assessed, including the tumor oncogene (Bcl-2), tumor suppressor gene (p53), matrix metalloproteinase gene (MMP-9), vascular endothelial growth factor gene (VEGF), and beta-catenin protein gene (β-catenin), in HepG-2 and Caco-2 cells, before and after treatment for 2 days with IC50 concentrations for compounds 4, 6, and 8. Following the extraction of total RNA from the tested cells, using the Gene JET RNA Purification Kit (Thermo Scientific, USA), cDNA synthesis was performed according to the cDNA Synthesis Kit protocol (Thermo Scientific, USA). qRT PCR was performed using the SYBR green kit and specific primers (Forward/Reverse) as follows: 5′-[…]-3'/5'-TCG GTCTCCTAAAAGCAGGC-3′ for the Bcl-2 gene, 5′-TAACAGTTCCTGCATG GG CG GC-3′/5′-[…]-3′ for p53, 5'-CTGCGTATTTCCATT CATC-3'/5'-CCTTGGGTCAGGTTTAGAG-3' for the MMP-9 gene, 5'-GGCTTTACT GCTGTACCTCC-3'/5'-CAAATGCTTTCTCCGCTCT-3' for the VEGF gene, and 5'-CATATGCGGCTGCTG TTCTA-3'/5'-CCGAAAG CCGTTTCTTGTAG-3' for the β-catenin gene. The upregulation and/or downregulation of the expression of the tested genes in Caco-2 and HepG-2 cells was determined by using the equation 2^−ΔΔCT[60].

Row | Structure (SMILES) | MIC Streptococcus mutant [1] | MIC [1] | MIC Pseudomonas aeruginosa [2] | MIC [2] | MIC ([3]; Candida albicans) | SI HepG-2 [5] | SI Caco-2 [6] | biofilm inhibition activity Pseudomonas aeruginosa (in words) [7] | IC50 [4] | IC50 [5] | IC50 [6] | inhibition at 25 µg/mL [8] | further results
1 | CC1(C)S[C@@H]2[C@H](NC(=O)[C@H](N)c3ccccc3)C(=O)N2[C@H]1C(=O)O [Ampicillin, ampicillin, reference compound] | 13.5 ± 0.234 µg/mL (≈ 38.6 µM) | 13.5 µg/mL (≈ 38.6 µM) | – | – | – | – | – | – | – | – | – | – | –
2 | O=C(O)c1cn(C2CC2)c2cc(N3CCNCC3)c(F)cc2c1=O [Ciprofloxacin, ciprofloxacin, reference compound] | – | – | 18.7 ± 0.475 µg/mL (≈ 56.4 µM) | 18.7 µg/mL (≈ 56.4 µM) | – | – | – | – | – | – | – | – | –
3 | Clc1ccccc1C(c1ccccc1)(c1ccccc1)n1ccnc1 [Clotrimazole, clotrimazole, reference compound] | – | – | – | – | 14.5 ± 1.25 µg/mL (≈ 42 µM) | – | – | – | – | – | – | – | –
4 | NS(=O)(=O)c1ccc(Nc2csc(N3NC4=C(CCCC4)C3c3ccccc3)n2)cc1 (stereo not drawn) [Compound 2] | 49.71 ± 0.5849 µg/mL (≈ 110 µM) | – | 40.13 ± 2.109 µg/mL (≈ 88.5 µM) | – | – | 17.39 ± 0.24 | 18.28 ± 0.25 | high biofilm inhibition activity | – | – | – | – | IC50 HFB-4 [4]: 110.8 ± 1.54 µg/mL (≈ 244 µM); IC50 HepG-2 [5]: 6.37 ± 0.36 µg/mL (≈ 14 µM); IC50 Caco-2 [6]: 6.06 ± 1.26 µg/mL (≈ 13.4 µM); MIC Candida albicans [3]: 52.77 ± 0.7862 µg/mL (≈ 116 µM); biofilm inhibition Pseudomonas aeruginosa ([7]; relative to untreated): approximately 58.5%
5 | N#CC1=C(N)N(c2ccc(S(N)(=O)=O)cc2)c2nc(N3NC4=C(CCCC4)C3c3ccccc3)sc2C1c1ccccc1 (stereo not drawn) [Compound 3, 4-(5-amino-6-cyano-7-phenyl-2-(3-phenyl-1,3,4,5,6,7-hexahydro-2H-indazol-2-yl)thiazolo[4,5-b]pyridin-4(7H)-yl) benzenesulfonamide] | 11.12 ± 0.4232 µg/mL (≈ 18.3 µM) | – | 18.29 ± 2.114 µg/mL (≈ 30.1 µM) | – | – | 7.20 ± 0.20 | 7.18 ± 0.20 | high biofilm inhibition activity | – | – | – | – | IC50 HFB-4 [4]: 55.59 ± 1.58 µg/mL (≈ 91.5 µM); IC50 HepG-2 [5]: 7.72 ± 0.38 µg/mL (≈ 12.7 µM); IC50 Caco-2 [6]: 7.74 ± 0.81 µg/mL (≈ 12.7 µM); MIC Candida albicans [3]: 40.74 ± 0.5511 µg/mL (≈ 67 µM); MIC Candida albicans ([3]; listed as compound 3): 40.74 µg/mL (≈ 67 µM); antifungal activity as share of clotrimazole activity ([3]; Candida albicans): 36%; MIC Pseudomonas aeruginosa ([2]; listed as derivative 3): 18.29 µg/mL (≈ 30.1 µM); MIC Streptococcus mutant ([1]; listed as derivative 3): 11.2 µg/mL (≈ 18.4 µM); biofilm inhibition Candida albicans ([8]; 25 µg/mL): 69%; antibiofilm formation activity Streptococcus mutans (in words) [9]: had antibiofilm formation activities; biofilm inhibition Streptococcus mutans ([9]; relative to untreated): around 64%
6 | N#Cc1c(N)sc2sc(N3NC4=C(CCCC4)C3c3ccccc3)nc12 (stereo not drawn) [Compound 5, 5-amino-2-(3-phenyl-1,3,4,5,6,7-hexahydro-2H-indazol-2-yl)thieno[3,2-d]thiazole-6-carbonitrile] | – | 43.52 ± 0.359 µg/mL (≈ 115 µM) | – | 56.5 ± 2.19 µg/mL (≈ 149 µM) | 59 ± 1.28 µg/mL (≈ 156 µM) | 12.90 ± 0.32 | 12.87 ± 0.32 | high biofilm inhibition activity | 97.7 ± 2.41 µg/mL (≈ 257 µM) | 7.57 ± 0.36 µg/mL (≈ 19.9 µM) | 7.59 ± 0.24 µg/mL (≈ 20 µM) | 68% | –
7 | O=c1[nH]cc(F)c(=O)[nH]1 [Compound 5-FU, 5-fluorouracil, reference compound] | – | – | – | – | – | – | – | – | – | – | – | – | expression of the β-catenin gene [10]: stimulated its expression
8 | N=C1CC(=O)Oc2nc(N3NC4=C(CCCC4)C3c3ccccc3)sc21 (stereo not drawn) [Compound 7, 7-imino-2-(3-phenyl-1,3,4,5,6,7-hexahydro-2H-indazol-2-yl)-6,7-dihydro-5H-pyrano [2,3-d]thiazol-5-one] | – | 22.4 ± 0.317 µg/mL (≈ 61.2 µM) | – | 43.9 ± 2.04 µg/mL (≈ 120 µM) | 58.2 ± 1.21 µg/mL (≈ 159 µM) | 10.99 ± 0.65 | 11.39 ± 0.67 | – | 105 ± 6.2 µg/mL (≈ 286 µM) | 9.53 ± 0.32 µg/mL (≈ 26 µM) | 9.2 ± 0.27 µg/mL (≈ 25.1 µM) | 66% | –
9 | CCOC(=O)C1=C2N=C(N3NC4=C(CCCC4)C3c3ccccc3)SC2C(=S)S1 (stereo not drawn) [Compound 9, ethyl 2-(3-phenyl-1,3,4,5,6,7-hexahydro-2H-indazol-2-yl)-6-thioxo-6,6a-dihydrothieno [3,4-d]thiazole-4-carboxylate] | – | 48.77 ± 0.246 µg/mL (≈ 110 µM) | – | 61.5 ± 1.83 µg/mL (≈ 139 µM) | 46.6 ± 1.2 µg/mL (≈ 105 µM) | 12.55 ± 0.06 | 11.04 ± 0.05 | – | 65.65 ± 0.29 µg/mL (≈ 148 µM) | 5.23 ± 0.25 µg/mL (≈ 11.8 µM) | 5.95 ± 0.1 µg/mL (≈ 13.4 µM) | ~79% | –
